Values after ≈ are worked out from the molar mass of the structure shown.
What was measured:
Format in all cases: cell-based
[1] = system: Saccharomyces cerevisiae ATCC 9763; test: Antifungal assay, S. cerevisiae; settings: ATCC9763, 24 °C, 48 h, read visually
Procedure: (§1) To ascertain the bioactivity of all compounds the inhibitory concentrations of 1–6 were measured against bacteria (Bacillus subtilis ATCC 6633 and Staphylococcus aureus ATCC 25923), yeasts (Candida albicans ATCC 10231 and Saccharomyces cerevisiae ATCC 9763), a protozoan (Tritrichomonas foetus), and mammalian cell lines (NS-1 mouse myeloma ATCC TIB-18 and NFF human neonatal foreskin fibroblast cells ATCC PCS-201). […] Given this selectivity, the IC50 values for each compound 1–5versus NS-1, NFF and DU145 human prostate cancer cell ATCC HTB-81 were ascertained by a resazurin-based assay (Table 2). […]
(§2) 1.7. Assays for Biological Activity
(§3) Purified metabolites (1 – 6) were dissolved in DMSO to provide stock solutions (1,000 µg/mL or 40 µg/mL). Bioassays were carried out in 96-well microtitre plates containing two-fold serial dilutions to yield ranges of 10 to 0.005 µg mL-1 or 0.4 to 0.0002 µg mL-1, in 1% DMSO. […]
(§4) Antifungal assays were carried out using Candida albicans ATCC 10231 and Saccharomyces cerevisiae ATCC 9763 as indicative species for antifungal activity. A yeast suspension (50 mL in 250 mL flask) was prepared in malt extract broth (1.0 g L-1 bacteriological peptone (Bacto), 20.0 g L-1 malt extract […]
(§5) (Bacto), 20 g L-1 glucose (Country Brewers)) by cultivation for 24 h at 250 rpm, 24 °C. The suspension was diluted to an absorbance of 0.005 and 0.03 absorbance units [ OD400] per mL for C. albicans and S. cerevisiae, respectively. Aliquots (20 µL and 30 µL) of C. albicans and S. cerevisiae, respectively were applied to the wells of a 96-well microtitre plate, which contained the test compounds dispersed in malt extract broth containing bromocresol green (50 µg mL-1). The plates were incubated at 24 °C for 48 h during which time the positive control wells change colour from a blue to yellow colour. MIC end points were determined visually. […]
(§6) To assay antitumour activity, NS -1 ATCC TIB-18 mouse myeloma , DU145 prostate cancer cells (ATCC HTB-81), and NFF (ATCC PCS -201) human neonatal foreskin fibroblast cells were each

[2] = system: NS-1 mouse myeloma ATCC TIB-18; test: Antitumour resazurin assay, NS-1 mouse myeloma cells; settings: 96 h; for MIC, NS-1: NS-1 mouse myeloma ATCC TIB-18; for IC50: Mus musculus, read-out: IC50 ± 95% confidence interval, NS-1
Procedure: as §1, §2, §3
(§7) To assay antitumour activity, NS -1 ATCC TIB-18 mouse myeloma , DU145 prostate cancer cells (ATCC HTB-81), and NFF (ATCC PCS -201) human neonatal foreskin fibroblast cells were each inoculated in 96 -well microtitre plates (190 µL) at 50,000 cells mL-1 in DMEM (Dulbecco's Modified Eagle Medium + 10% v/v fetal bovine serum (FBS) + 1% v/v penicillin/streptomycin (10,000U mL-1/ 10,000 µg mL-1, Life Technologies Cat. No. 15140122), together with resazurin (250 µg/mL; 10 µL) and incubated at 37 °C (5% CO2). The plates were incubated for 96 h. Absorbance was measured using a Spectromax plate reader (Molecular Devices) at 605 nm for % inhibition, and IC50 values determined.

[3] = system: Staphylococcus aureus ATCC 25923; test: Antibacterial assay, S. aureus; settings: ATCC25923, 28 °C, 48 h, read visually
Procedure: as §1, §2
as §3, with “DMSO. Wells containing no test compound as a reference for no inhibition, and uninoculated wells were used as a reference for complete” for “DMSO.”
(§8) Antibacterial assays were carried out using Bacillus subtilis ATCC 6633 and Staphylococcus aureus ATCC 25923 as indicative species for Gram-positive activity. A bacterial suspension (50 mL in 250 mL flask) was prepared in nutrient broth media (5.0 g L-1 bacteriological peptone (Bacto), 5.0 g L-1 NaCl (Chem-supply), 2.0 g L-1 yeast extract (Bacto), 1.0 g L-1 beef extract (Bacto)) by cultivation for 24 h at 250 rpm, 28 °C. The suspension was diluted to an absorbance of 0.01 absorbance units per mL [OD400 nm] and aliquots (10 µL) were added to the wells of a 96 -well microtitre plate containing the test compounds dispersed in nutrient broth with resazurin (12.5 µg mL-1). The plates were incubated at 28 °C for 48 h, during which time the positive control wells change colour from a blue to light pink colour. MICs were determined visually. […]

[4] = system: Bacillus subtilis ATCC 6633; test: Antibacterial assay, B. subtilis; settings: ATCC6633, 28 °C, 48 h, read visually
Procedure: as §1, §2
as §3, with “DMSO. Wells containing no test compound as a reference for no inhibition, and uninoculated wells were used as a reference for complete” for “DMSO.”
as §8

[5] = system: Candida albicans ATCC 10231; test: Antifungal assay, C. albicans; settings: ATCC10231, 24 °C, 48 h, read visually
Procedure: as §1, §2, §3, §4, §5, §6

[6] = system: NFF human neonatal foreskin fibroblast cells ATCC PCS-201; test: Resazurin assay, NFF human neonatal foreskin fibroblast cells; settings: for IC50: Homo sapiens, Fibroblast, read-out: IC50 ± 95% confidence interval, NFF; for IC50 / MIC, NFF: 96 h; for MIC, NFF: NFF human neonatal foreskin fibroblast ATCC PCS-201
Procedure: as §1, §2, §3, §7

[7] = system: DU145 human prostate cancer cell ATCC HTB-81; test: Antitumour resazurin assay, DU145 prostate cancer cells; settings: DU-145, 96 h, read-out: IC50 ± 95% confidence interval, DU145
Procedure: as §1, §2, §3, §7

mammalian cell lines = test: Inhibitory activity against mammalian cell lines (summary across NS-1, DU145, NFF)
Procedure: To ascertain the bioactivity of all compounds the inhibitory concentrations of 1–6 were measured against bacteria (Bacillus subtilis ATCC 6633 and Staphylococcus aureus ATCC 25923), yeasts (Candida albicans ATCC 10231 and Saccharomyces cerevisiae ATCC 9763), a protozoan (Tritrichomonas foetus), and mammalian cell lines (NS-1 mouse myeloma ATCC TIB-18 and NFF human neonatal foreskin fibroblast cells ATCC PCS-201). […] Given this selectivity, the IC50 values for each compound 1–5versus NS-1, NFF and DU145 human prostate cancer cell ATCC HTB-81 were ascertained by a resazurin-based assay (Table 2).
as §5
Cat. No. 15140122), 10% v/v new born calf serum (NBCS), Life Technologies). […] T. foetus proliferation was measured at 72 h . […]

Which MIC [1] does the source give for `CC[C@H](O)[C@@H](C)/C=C/C[C@H](C)/C=C/C=C(\C)[C@H]1OC(=O)C[C@H](O)CC[C@H](C)[C@@H](O)/C=C/[C@@H]1C` [Compound 5, Δ18,19-6-deoxy-7-desacetylpladienolide B] here?
Its MIC is greater than 20 µg/mL.

And the “MIC, NS-1” value [2]?
The value was 0.63 µg/mL (≈ 1.36 µM).

What about the MIC [3] of the same compound?
Its MIC is greater than 10 µg/mL.

And the MIC [4]?
Its MIC is greater than 10 µg/mL.

What about the MIC [5] of the same compound?
Its MIC is greater than 20 µg/mL.

And the IC50 [6]?
Its IC50 is 8.1 ± 1.8 µM.

And the “Activity, times lower than 1 against NFF” value ([6]; NFF)?
The value was greater than 600 times.

What about the “MIC, NFF” value [6] of the same compound?
The value was 10 µg/mL (≈ 21.6 µM).

Which results are given for `CC[C@@H]1O[C@@H](C[C@H](C)/C=C/C=C(\C)[C@H]2OC(=O)C[C@H](O)CC[C@@](C)(O)[C@@H](OC(C)=O)/C=C/[C@@H]2C)[C@H](O)[C@@H]1C` [Compound 6, isopladienolide B]?
MIC [1]: > 20 µg/mL; MIC, NS-1 [2]: 0.08 µg/mL (≈ 0.149 µM); MIC [3]: > 10 µg/mL; MIC [4]: > 10 µg/mL; MIC [5]: > 20 µg/mL; MIC, NFF [6]: 1.25 µg/mL (≈ 2.33 µM)

What does the source list for `CC[C@H](O)[C@@H](C)[C@H]1O[C@@H]1C[C@H](C)/C=C/C=C(\C)[C@H]1OC(=O)C[C@H](O)CC[C@@](C)(O)[C@@H](OC(C)=O)/C=C/[C@@H]1C` [Compound 1, pladienolide B]?
MIC [1]: > 20 µg/mL; IC50 [7]: 0.0075 ± 0.0035 µM; IC50 [2]: 0.0056 ± 0.0006 µM; MIC, NS-1 [2]: 0.001 µg/mL (≈ 0.00186 µM); MIC [3]: > 10 µg/mL; MIC [4]: > 10 µg/mL; MIC [5]: > 20 µg/mL; IC50 [6]: 0.013 ± 0.0041 µM; MIC, NFF [6]: 0.013 µg/mL (≈ 0.0242 µM)

Which results are given for `CC[C@H](O)[C@@H](C)/C=C/C[C@H](C)/C=C/C=C(\C)[C@H]1OC(=O)C[C@H](O)CC[C@H](C)[C@@H](OC(C)=O)/C=C/[C@@H]1C` [Compound 4, Δ18,19-6-deoxypladienolide B]?
MIC [1]: > 20 µg/mL; IC50 [7]: 0.264 ± 0.079 µM; IC50 [2]: > 0.79 µM; MIC, NS-1 [2]: 0.1 µg/mL (≈ 0.198 µM); MIC [3]: > 10 µg/mL; MIC [4]: > 10 µg/mL; MIC [5]: > 20 µg/mL; IC50 [6]: > 0.79 µM; MIC, NFF [6]: 0.4 µg/mL (≈ 0.793 µM)

How did the “Fold less effective than 1” value (mammalian cell lines; depending on the cell line) turn out when `CC[C@H](O)[C@@H](C)[C@H]1O[C@@H]1C[C@H](C)/C=C/C=C(\C)[C@H]1OC(=O)C[C@H](O)CC[C@H](C)[C@@H](OC(C)=O)/C=C/[C@@H]1C` [Compound 2, 6-deoxypladienolide B] was run?
Its value is no more than 8 fold.

What about the MIC [1] of the same compound?
Its MIC is greater than 20 µg/mL.

What about the IC50 [7] of the same compound?
Its IC50 is 0.0096 ± 0.0058 µM.

What about the IC50 [2] of the same compound?
Its IC50 is 0.0403 ± 0.0037 µM.

And the “MIC, NS-1” value [2]?
The value was 0.001 µg/mL (≈ 0.00192 µM).

What about the MIC [3] of the same compound?
Its MIC is greater than 10 µg/mL.

What about the MIC [4] of the same compound?
The MIC was greater than 10 µg/mL.

And the MIC [5]?
Its MIC is greater than 20 µg/mL.

What about the IC50 [6] of the same compound?
Its IC50 is 0.027 ± 0.014 µM.

And the “MIC, NFF” value [6]?
The value was 0.04 µg/mL (≈ 0.0768 µM).

For `CC[C@H](O)[C@@H](C)/C=C/C[C@H](C)/C=C/C=C(\C)[C@H]1OC(=O)C[C@H](O)CC[C@@](C)(O)[C@@H](OC(C)=O)/C=C/[C@@H]1C` [Compound 3, Δ18,19-pladienolide B], which “IC50 values, times greater than those of 1” value (mammalian cell lines; across cell lines) is on record?
The value was “up to twenty-five”.

What about the MIC [1] of the same compound?
Its MIC is greater than 20 µg/mL.

And the IC50 [7]?
Its IC50 is 0.096 ± 0.027 µM.

What about the IC50 [2] of the same compound?
The IC50 was greater than 0.77 µM.

And the “MIC, NS-1” value [2]?
Its value is 0.05 µg/mL (≈ 0.096 µM).

What about the MIC [3] of the same compound?
The MIC was greater than 10 µg/mL.

What about the MIC [4] of the same compound?
Its MIC is greater than 10 µg/mL.

And the MIC [5]?
Its MIC is greater than 20 µg/mL.

And the IC50 [6]?
The IC50 was 0.319 ± 0.061 µM.

And the “MIC, NFF” value [6]?
Its value is 0.6 µg/mL (≈ 1.15 µM).

Reference: paper PMC8163091, “Production of novel pladienolide analogues through native expression of a pathway-specific activator” (Chemical Science, 2020)
